The values below come from ChEMBL document CHEMBL1157539, “Thousands of chemical starting points for antimalarial lead identification” (Nature, 2010).

This experiment relates to Plasmodium falciparum. Kind of experiment: GSK_TCMDC: Inhibition of Plasmodium falciparum 3D7 in whole erythrocytes, using parasite LDH activity as an index of growth. In kind it is functional, organism-based. The settings on record: Plasmodium falciparum, 3D7.
The compound `O=[N+]([O-])c1ccc(Nc2nc(NCc3ccccc3)nc(N/N=C/c3ccccc3[N+](=O)[O-])n2)cc1` had an XC50 of 157 nM.
To `CCc1cc(Cc2cnc(N)nc2N)cc(CC)c1OC` belongs 1130 nM.
With `OC(CNCc1ccccc1OCc1ccccc1)c1cccc(C(F)(F)F)c1` (configuration not stated) the figure was 364 nM; with `COc1ccc(CCN(C)CCc2ccc(NC(=O)c3cccc4c(=O)c5ccccc5sc34)cc2)cc1`, 859 nM.
Consider `C[C@H](Cc1ccc(C[C@@H](C)NCC(O)c2cc(Cl)c(N)c(Cl)c2)cc1)NCC(O)c1cc(Cl)c(N)c(Cl)c1` (some centres not stated), for which the XC50 was found to be 893 nM.
For the compound `Cc1cccc2nc(-c3ccc(-c4ccc(CN5CCN(CCC#N)CC5)cc4)cc3)[nH]c12`, the XC50 came to 864 nM.
`CS(=O)(=O)NCCCNCc1ccc(-c2cccc(-c3nc4cc(C(F)(F)F)ccc4[nH]3)c2)cc1` gave an XC50 of 854 nM.
With `COc1ccc(-c2cccc(NC(=O)c3cccc(C#N)c3)c2)cc1CN(C)CCN(C)C` the figure was 314 nM.
With `COc1ccc2nccc([C@@H](O)CN3CCC(NC(=O)/C=C/c4ccc5cc(C)[nH]c5c4)CC3)c2c1` the figure was 728 nM; with `COc1ccc(C(C(=O)NC2CCN(C[C@H](O)c3ccnc4ccc(OC)cc34)CC2)N2CCN(c3ccc([N+](=O)[O-])cc3)CC2)cc1` (some centres not stated), 232 nM.
Compound `CC(C)CNCc1ccc(-c2cccc(CN(C(=O)CCC3CCCC3)C3CCN(Cc4ccccc4)CC3)c2)cc1` showed an XC50 of 799 nM.
Turning to `CCN1CCN(c2cc(C)c3cc(NC(=O)c4cccc(Cl)c4)ccc3n2)CC1`, the XC50 was determined as 775 nM.
`O=[N+]([O-])c1cc2c(cc1C=NNc1nc(=Nc3ccccc3)[nH]c(=Nc3ccccc3)[nH]1)OCO2` came in with an XC50 of 866 nM.
In turn, `Cc1cccc2nc(-c3cccc(-c4cccc(CN5CCN(c6ccc(C#N)cn6)CC5)c4)c3)[nH]c12` came in with an XC50 of 1160 nM.
In turn, `CC(C)CNCc1cccc(-c2cccc(CN(CCCN3CCN(C)CC3)C(=O)/C=C/c3ccccc3)c2)c1` came in with an XC50 of 926 nM.
The compound `COc1cc(OC)c(NC(=O)C2c3ccccc3C(=O)N(CC(C)C)C2c2cccs2)cc1Cl` (configuration not stated) had an XC50 of 46.4 nM.
For `CCOc1ccc2[nH]c(C)cc(=NN=Cc3ccc(Cl)cc3)c2c1`, the XC50 was found to be 763 nM.
To `N[C@@H](Cc1cc(I)c(Oc2ccc(O)c(Cl)c2)c(I)c1)C(=O)O` belongs 993 nM.
On to `O=C(/C=C/c1ccc(Cl)c(Cl)c1)NCCCCCN1CCC(NC(=O)c2cccc(Cl)c2)CC1`, for which the XC50 amounted to 687 nM.
`Cc1ccccc1OCCCN1CCN(CC(c2ccc(F)cc2)N2CCN(C(C)C)CC2)CC1` (configuration not stated) came in with an XC50 of 1410 nM.
The compound `COCCN(CCOC)c1ncc(-c2ccsc2)c(-c2nc(C)c(C)s2)n1` showed an XC50 of 843 nM.
To `COc1cccc(C(=O)NCc2cccs2)c1OCc1ccccc1` belongs 921 nM; to `CC(C)CNCc1ccc(-c2ccc(CN(C(=O)NC3CCCCC3)C3CCN(Cc4ccccc4)CC3)cc2)cc1`, 785 nM; to `COc1ccc(CC(=O)Nc2ccc(Nc3nc(C)cc(N(C)C)n3)cc2)cc1`, 790 nM.
To `Cc1ccc(NC(=O)c2ccc(N3CCN(c4ccncc4)CC3)cc2)cc1F` belongs 736 nM; to `c1cc(CNC2CCCC2)cc(-c2ccc(CNc3ccc4ncccc4c3)cc2)c1`, 773 nM.
With `N#Cc1cccc(C(=O)Nc2ccc(-c3cccc(CN4CCC(O)CC4)c3)cc2)c1` the figure was 995 nM; with `O=C(CCc1ccccc1)N[C@H](Cc1c[nH]c2ccccc12)C(=O)N1CCC(NCc2ccc3c(c2)Cc2ccccc2-3)CC1`, 910 nM; with `CS(=O)(=O)c1ccc(CCNCc2ccc(-c3ccc(CN(C(=O)c4cccc(C#N)c4)C4CCN(Cc5ccccc5)CC4)cc3)nc2)cc1`, 977 nM.
`CCOC(=O)NC1=NC(C)(C)N(OCCCOc2cc(Cl)c(Cl)cc2Cl)C(NC(=O)OCC)=N1` showed an XC50 of 31.2 nM.
`CCNc1cc(C)nc(Nc2ccc(NC(=O)C3CCCC3)cc2)n1`: the XC50 was 1120 nM.
To `Cc1ccc(F)c(C(=O)Nc2cccc(-c3nn4ccccc4c3-c3ccnc(Nc4cccc(F)c4)n3)c2)c1F` belongs 1050 nM.
To `O=C(NCc1cccs1)[C@H](Cc1ccccc1)Nc1ccnc(NCCc2ccccc2)n1` belongs 1050 nM; to `Cc1ccc(C(NC(=O)Cc2ccccc2)c2ccc3cccnc3c2O)cc1` (configuration not stated), 623 nM; to `CC(C)CNCc1ccc(-c2cccc(CN(C(=O)NC3CCCCC3)C3CCN(Cc4ccccc4)CC3)c2)cc1`, 805 nM.
As for `COc1cccc2cc(C(=O)N[C@@H](CC(C)C)C(=O)N[C@H](C=NNC(=O)OC(C)(C)C)CC(C)C)oc12`, the XC50 was 905 nM.
With `Nc1ncc(-c2ccc3nccc(-c4ccncc4)c3c2)cc1S(=O)(=O)N1CCCCC1` the figure was 581 nM.
With `COc1ccc2nccc([C@@H](O)CN3CCC(NC(=O)c4ccc(-c5ccc(C#N)cc5)cc4)CC3)c2c1` the figure was 164 nM.
The compound `CCC1CN2CCc3c([nH]c4ccccc34)[C@@H]2C[C@@H]1CC1NCCc2cc(OC)c(OC)cc21` (some centres not stated) yielded an XC50 of 865 nM.
Consider `O=C(Nc1ccc(Cl)cc1F)NC1CCN(CCCCCNC(=O)C2CC2c2ccc(Cl)c(Cl)c2)CC1` (configuration not stated), for which the XC50 turned out to be 510 nM.
With `O=C(NCc1ccccc1)c1nn(CCCN2CCC3(CC2)C(=O)NCN3c2ccccc2)cc1-c1ccc(Cl)c(Cl)c1` the figure was 1050 nM; with `Cc1cccc2nc(-c3cccc(-c4cccc(NC(=O)Nc5ccccc5)c4)c3)[nH]c12`, 139 nM; with `Cc1ccc(NC(=O)NC2CCN(c3ccnc4ccccc34)CC2)cc1`, 790 nM.
`CN1CCCN(Cc2ccc(-c3ccc(NC(=O)c4cccc(C#N)c4)cc3)cc2)CC1` gave an XC50 of 875 nM.
Consider `CC(C)CCNC(=N)Nc1ccc(OCCCOc2ccc(NC(=N)NCCC(C)C)cc2)cc1`, for which the XC50 worked out at 200 nM.
`CN1CC[C@@H](Oc2cc(CNC(=O)c3ccc(-c4ccc(Cl)cc4)s3)ccc2C(F)(F)F)C1` yielded an XC50 of 1030 nM.
To `Cc1cccc(CNc2nc(C)cc(N[C@@H](Cc3ccccc3)C(=O)NCCc3ccccc3)n2)c1` belongs 673 nM; to `COc1cccc(-c2cnc(N)c(-c3nc4cc(Cl)c(F)cc4[nH]3)c2)c1`, 536 nM.
To `Cc1cccc2nc(-c3ccc(-c4ccc(CN5CCC(C(N)=O)CC5)cc4)cc3)[nH]c12` belongs 932 nM; to `COc1cc(C2CCN(CCCCNC(=O)c3ccc(NC(=O)c4ccc(Cl)c(Cl)c4)cc3)CC2)ccc1OC(C)C`, 316 nM; to `CS(=O)(=O)c1cc2c(Nc3ccc(N4CCOCC4)cc3)c(C(N)=O)cnc2cc1Br`, 249 nM.
In the case of `Cc1cccc2c3c([nH]c12)C1(CCN(Cc2ccccc2)CC1)NC(C(=O)NCc1ccccc1)C3` (configuration not stated), the XC50 stood at 1370 nM.
To `COc1ccc2nccc([C@@H](O)CN3CCC(NC(=O)C(c4cc5ccccc5o4)N4CCC(Cc5ccccc5)CC4)CC3)c2c1` (some centres not stated) belongs 247 nM; to `O=C(CCNc1ccnc(NCCc2ccccc2)n1)Nc1ccccc1`, 836 nM; to `C=CCOC1OC(COC(c2ccccc2)(c2ccccc2)c2ccccc2)C(OC(C)=O)C(OC(C)=O)C1NC(C)=O` (configuration not stated), 657 nM.
With `C=C[C@]1(C)C[C@@H](OC(=O)c2n[nH]c3ccccc3c2=O)[C@]2(C)[C@H](C)CC[C@]3(CCC(=O)[C@H]32)[C@@H](C)[C@@H]1O` the figure was 670 nM; with `CCCCC(CCCC)CN1C(=O)C(c2ccccc2)(c2ccccc2)N=C1N`, 182 nM; with `O=C(NCCCCN1CCC(c2ccc([N+](=O)[O-])cc2)CC1)c1ccc(NC(=O)c2ccc(Cl)cc2)cc1`, 757 nM.
`CCc1ccc(NC(=O)c2ccc(CN3CCCN(Cc4cccc(C)c4)CC3)cc2)cc1` came in with an XC50 of 1130 nM.
With `Cc1cc2nc(-c3ccc(/C=C/C(=O)NCCCc4ccccc4)cc3)[nH]c2cc1C` the figure was 955 nM.
Take `CCNC[C@@H](O)[C@H](Cc1ccccc1)NC(=O)c1cc2c3c(c1)c(CC)cn3CCS(=O)(=O)N2C`: the XC50 is 810 nM.
Turning to `CC(=O)CSC(C=Cc1ccc(N(C)C)cc1)=Nc1ccccc1`, the XC50 stood at 1120 nM.
`COc1ccc(-c2ccccc2OCCCNc2nc(NCCc3ccc(O)cc3)nc(N3CCNCC3)n2)cc1` yielded an XC50 of 785 nM.
In turn, `c1ccc(Oc2ccc(Nc3ccnc4cc(-c5ccc(CN6CCNCC6)o5)ccc34)cc2)nc1` came in with an XC50 of 243 nM.
To `O=S(=O)(NCCN1CCCC1)c1ccc(-c2ccc(CNCc3ccsc3)cc2)cc1` belongs 853 nM; to `Cc1cccc(C(=O)N2CCN(Cc3cccc(NC(=O)c4cccs4)c3)CC2)c1`, 221 nM.
With `O=C(NCCCCN1CCC(c2ccc3c(c2OCCN2CCCC2=O)CCCC3)CC1)c1ccc(-c2ccc(C(F)(F)F)cc2)cc1` the figure was 1520 nM; with `CCOC(=O)c1nc(-c2ccc(-c3ccccc3)cc2)[nH]c1N`, 422 nM; with `Cc1cc(-c2ccc(NC(=O)N3CCc4cc(Br)c(N5CCN(C)CC5)cc43)cc2)cc(C)n1`, 1010 nM.
Consider `Cc1nc2sccn2c1C(=O)NCCc1ccccc1Cl`, for which the XC50 was determined as 800 nM.
To `CCn1c2ccccc2c2cc(C=NN=c3cc(C)[nH]c4ccccc34)ccc21` belongs 309 nM.
To `c1cc(CNC2Cc3ccccc3C2)cc(-c2cnc(N3CCNCC3)nc2)c1` belongs 943 nM; to `CN(C)C(=O)c1ccc(CN(Cc2cccc(OC(C)(C)C)c2)Cc2ccc3c(c2)OCCO3)cc1`, 571 nM; to `Oc1ccc(Cl)cc1CN1CCCC(COC(c2ccc(F)cc2)c2ccc(F)cc2)C1` (configuration not stated), 677 nM.
With `FC(F)(F)c1ccc2[nH]c(-c3ccc(-c4cccc(CN5CCN(c6ccncc6)CC5)c4)cc3)nc2c1` the figure was 118 nM.
Compound `N#Cc1cc(C(=O)c2cc(Br)ccc2O)cn(-c2cc(Cl)cc(Cl)c2)c1=O` showed an XC50 of 879 nM.
With `CCn1c(SCC(=O)Nc2cc(C(F)(F)F)ccc2Cl)nc2ccccc2c1=O`, the XC50 is 397 nM.
With `COc1ccc(CNc2nc(Nc3cccc(C#N)c3)nc(Nc3cccc(C#N)c3)n2)cc1Cl` the figure was 179 nM.
To `CC1CCCCN1S(=O)(=O)c1ccc(NC(=O)c2cc(-c3ccccc3O)n[nH]2)cc1` (configuration not stated) belongs 756 nM; to `CC(CC(=O)NCC1(c2ccc(F)cc2Cl)CCOCC1)C(=O)c1ccc(Cl)cc1` (configuration not stated), 856 nM; to `CCN1C(=O)C(=NN=C(S)N2CCCC2)c2ccccc21`, 1000 nM.
With `CN1CCN(CCCN(Cc2ccc(-c3ccc(CNCCc4ccccc4)cc3)cc2)C(=O)c2cccs2)CC1` the figure was 1430 nM.
